Tests used:
[1] = tested on: EBV-transformed B cell lines or clones; assay: 51Cr release toxicity assay; type: cell-based, human
From the text: (§1) HS-Sultan, a human plasma cell line (Goldblum et al. (1973) Proc. Seventh Leucocyte Culture Conference, ed by Daguilland, Acad. Press N.Y. pp 15-28), Daudi, a B lymphoblastoid cell line (Klein et al. (1968) Cancer Res. V 28, p 1300), MoLT-4, an acute lymphoblastic T-cell leukemia line (Monowada et al. (1972) J. Nat'l Canc. Inst. V 49, p 891), and U-937, a human monocyte-like cell line (Koren et al. (1979) Nature V 279, p 891) were obtained from the American Type Culture Collection, Rockville, Md. These lines as well as HEp-2 a human epidermoid carcinoma line (a generous gift of Dr. R. Sontheimer, UTHSCD); Currie, a human renal cell carcinoma line (a generous gift of Dr. M. Prager, UTHSCD); and K562, a human erythroleukemia line (a generous gift of Dr. M. Bennett, UTHSCD) were maintained in culture in medium RMPI supplemented with 10% FBS. Human dermal fibroblasts (a generous gift of Dr. T. Geppert, UTHSCD) were serially passaged in culture as well while human umbilical vein endothelial cells (a generous gift of Dr. A. Johnson, UTHSCD) were used after one subculture Epttein Barr virus (EBV) transformed B lymphoblastoid cell lines JM.6 and SM.4 (kindly provided by Dr. J. Moreno, UTHSCD) and cloned EBV transformed B cell lines SDL-G2 and D8-219 (a generous gift of Drs. L. Stein and M. Dosch, Hospital for Sick Children, Toronto, Canada) were maintained in culture in medium RPMI supplemented with 10% FBS.
(§2) In some experiments, toxicity of Leu-Leu-OMe for a variety of cell populations was assessed by ^51 Cr release In assays where cells obtained from suspension culture were to be used, cells were labeled with Na2^51 CrO4 (ICN, Plainview, N.Y.) for 60-90 minutes at 37° C. and then washed three times. Cells were then suspended in PBS (2.5×10^6 /ml) and incubated in microtiter plates, 50 microL/well with indicated concentrations of Leu-Leu-OMe for 15 minutes at room temperature. […] Following ^51 Cr labeling, wells were thoroughly washed and varying concentrations of Leu-Leu-OMe added in 50 microL PBS and the plates incubated for 15 minutes at room temperature.
(§3) Following such initial serum-free incubations, 200 microL/well of medium RPMI containing 10% FBS were added and the plates incubated for another 4 hours prior to removal of 100 microliters of supernatant. Radioactivity in the supernatant was measured in an auto-gamma scintillation spectrometer (Packard Instrument Co., Downers Grove, Ill.). The percent specific release was calculated from the formula: [formula] in which maximal release refers to cpm obtained in wells containing 50% lysing agent (American Scientific Products, McGraw Park, Ill.) and spontaneous release refers to cpm released by cells incubated in control medium in the absence of Leu-Leu-OMe or the lysing agent. Only experiments in which spontaneous release was […] were used for subsequent data interpretation.
(§4) In developing the data expressed in FIG. 7, cells (2.5×10^6 /ml) were exposed to the indicated concentrations of Leu-Leu-OMe for 15 minutes at room temperature, then specific ^51 Cr release during the next four hours was assessed. Data for the EBV transformed lines JM.6, SDL-G2, D8-219, and SM.4, respectively, are shown in order from top to bottom.

[2] = tested on: MoLT-4; assay: 51Cr release toxicity assay; type: cell-based, human; details: broad concentration range
From the text: as §1, §2, §3, §4

[3] = tested on: U937; assay: 51Cr release toxicity assay; type: cell-based, human
From the text: as §1, §2, §3, §4

[4] = tested on: renal cell carcinoma line, Currie; assay: 51Cr release toxicity assay
[5] = tested on: graft vs. host disease (GVHD); assay: Murine bone marrow transplantation, donor inoculum treated in vitro: survival and GVHD; type: in vivo, B6→B6D2F1 mice
Protocol: Female, 8-16-wk-old, C57BL/6J (B6) and (C57BL/6J x DBA/2J)F1 mice (B6D2F1) were used as donors and recipients, respectively. For some experiments B6 donors were […] 70×10^6 cells/ml either in phosphate-buffered saline (PBS) or in Leu-Leu-OMe dissolved in PBS. Leu-Leu-OMe was synthesized from leucyl-leucine as previously described (10). After a 15 min incubation at room temperature, the cells were washed once, suspended in Hanks' balanced salt solution, counted, and infused via a lateral tail vein into irradiated (950 cGy) F1 recipients.
Survival times were measured from the day of transplantation to the day of death. Deaths occurring within 8 d of transplantation were considered to be the result of radiation-induced gastroenteritis and were excluded. The nonparametric Mann-Whitney test was used to determine whether the median survival times (MST) differed between groups (14).
Organs of recipient mice were fixed in 10% buffered formalin. Sections were stained with Hematoxylin and Eosin.

[6] = tested on: CTL precursors; assay: Elimination of cytotoxic T lymphocytes (6 day MLC, lysis of allogeneic stimulator lymphoblasts); type: cell-based, human
Protocol: Experiments were also designed to assess the relative sensitivity of NK and CTL to Leu-Leu-OMe. In the studies detailed in FIGS. 8 and 9, cytotoxicity assays were performed over a broad range of E:T ratios and units of lytic activity arising from equal numbers of responding lymphocytes were calculated and compared. […] Only after exposure to greater than 250 micromolar Leu-Leu-OMe were all CTL precursors eliminated.
Non-adherent lymphocytes (2.5×10^6 /ml) were incubated with the indicated concentrations of Leu-Leu-OMe for 15 minutes. Cells were then washed and either placed in mixed lymphocyte culture or assayed for specific lysis of K562 cells (NK). After 6 day MLC, cells were assayed for specific lysis of allogeneic stimulator lymphoblasts (CTL) or K562 (AcNK). Data are expressed as percent of control lytic units (mean+SEM, n=6).
Both values were also higher than the mean concentration of Leu-Leu-OMe required to diminish spontaneous NK lytic activity by 75% (35 micromolar±4 micromolar). […] Thus, only after MLC activation did CTL display a sensitivity to Leu-Leu-OMe toxicity that was equal to that of NK cells.

Which 51Cr release ([1]; 1 mM, some EBV lines) does the source give for `COC(=O)[C@H](CC(C)C)NC(=O)[C@@H](N)CC(C)C` [Leu-Leu-OMe, L-leucyl-L-leucine methyl ester] here?
Its 51Cr release is “less than 20%”.

And the 51Cr release ([1]; 250 micromolar, other lines)?
Its 51Cr release is 25-35%.

What about the “toxicity (51Cr release)” value ([1]; less than 250 micromolar) of the same compound?
The value was “no significant toxicity”.

What about the “toxicity (51Cr release)” value [2] of the same compound?
The value was “no detectable Leu-Leu-OMe toxicity over a broad concentration range”.

What about the “concentration above which extensive 51Cr release and no viable proliferating cell” value [3] of the same compound?
The value was “more than 250 micromolar”.

And the “toxicity (51Cr release)” value ([3]; concentration-dependent)?
Its value is “susceptible to concentration-dependent Leu-Leu-OMe toxicity”.

And the 51Cr release [4]?
Its 51Cr release is “no significant Leu-Leu-OMe induced ^51 Cr release”.

And the subsequent proliferative capacity ([4]; 500 micromolar)?
The subsequent proliferative capacity was “had no discernible effect on subsequent proliferative capacity”.

What about the “Leu--Leu--OMe Sensitivity (LD50)” value ([4]; Renal Cell Carcinoma) of the same compound?
Its value is over 500 micro-M.

And the GVHD-mediated tissue injury ([5]; 25×10^6 cells treated with 250 micro-M)?
Its GVHD-mediated tissue injury is “had no evidence of cutaneous GVHD”.

And the GVHD-mediated tissue injury ([5]; 25×10^6 donor cells treated with 125 micro-M)?
Its GVHD-mediated tissue injury is “manifested evidence of acute GVHD, although at somewhat diminished intensity”.

What about the GVHD-mediated tissue injury ([5]; 50×10^6 treated cells) of the same compound?
Its GVHD-mediated tissue injury is “manifested acute cutaneous GVHD”.

And the “mice surviving >90 d (long-term survivors)” value ([5]; immune donors, 37×10^6 donor cells treated with 250 micro-M)?
Its value is “three of nine”.

What about the “median survival time (MST)” value ([5]; immune donors, 37×10^6 donor cells treated with 250 micro-M, untreated 11 d) of the same compound?
The value was 49 days.

And the “median survival time (MST)” value ([5]; naive donors, 25×10^6 donor cells treated with 125 micro-M, untreated 19 d)?
Its value is 41.5 days.

And the “survival of all recipients” value ([5]; naive donors, 25×10^6 donor cells treated with 250 micro-M, untreated MST 19 d)?
The value was over 120 days.

What about the “survival of all recipients” value ([5]; naive donors, 50×10^6 donor cells treated with 250 micro-M, untreated MST 14 d) of the same compound?
Its value is over 200 days.

And the “CTL precursors still present, of control levels” value ([6]; 100 micromolar, 15 minutes (FIG. 8))?
Its value is “greater than 50%”.

And the “concentration above which all CTL precursors eliminated” value ([6]; 15 minutes (FIG. 8))?
Its value is “greater than 250 micromolar”.

What about the “sensitivity of CTL and AcNK following activation” value ([6]; after 6 day MLC, 15 minutes incubation (FIG. 9)) of the same compound?
Its value is “became identical in sensitivity to Leu-Leu-OMe”.

And the “mean concentration required to diminish lytic activity by 75%” value ([6]; elimination of CTL precursors)?
Its value is 123 ± 25 µM.

Reference: patent publication US5304474A, “Hydrophobic peptide esters and amides” (Board of Regents, The University of Texas System, priority 1991, dated 1994)
